Read-outs that look alike come from different tables or passages of the source. Peptide text beside a SMILES is read from it. * marks the point of attachment. Biotin = O=C1N[C@H]2[C@H](CS[C@H]2CCCCC(=O)*)N1
How the values were obtained:
Format in all cases: binding
[1] = biological target: T1, PDZ protein (GST-PDZ fusion) (Homo sapiens, UniProt Q14160); assay: G' assay (10 uM PL peptide), results of TABLE 7 and TABLE 12
T1 construct: made in house; host or cells: E. coli (DH5alpha, BL21 or JM109)
Method in brief: (§1)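 Biotin-PL peptide (N-term label), 10 uM vs GST-PDZ; protein 5 ug/ml by default. A450 nm binned: 1 = 0-1, 2 = 1-2, 3 = 2-3, 4 = 3-4, 5 = >4 on >2 repeats, 0 = no binding.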

[2] = biological target: T2, PDZ protein (GST-PDZ fusion) (Homo sapiens, UniProt Q86UL8); assay: as above
T2 construct: made in house; host or cells: E. coli (DH5alpha, BL21 or JM109)
Method in brief: as §1

[3] = biological target: PDZ-domain polypeptide (GST/PDZ fusion protein); assay: Apparent affinity (Kd) by titration of PL peptide in the G assay
Method in brief: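 A fixed concentration of GST/PDZ fusion protein, 5 ug/ml by default, was mixed in solution with increasing labeled PL peptide (e.g. 0.1 uM-1 mM). Reaction times ranged from 10 minutes to 2 days at 4-37° C. Complexes were separated from free peptide and detected via the label as in the G assay, apparent affinity coming from the saturating concentration.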

[4] = biological target: T3, PDZ protein (GST-PDZ fusion) (Homo sapiens, UniProt Q9P202); assay: G' assay (10 uM PL peptide), results of TABLE 7 and TABLE 12; conditions: PDZ KIAA1526, PDZ Domain 1
T3 construct: made in house; host or cells: E. coli (DH5alpha, BL21 or JM109)
T3 sequence (Q9P202 1-907): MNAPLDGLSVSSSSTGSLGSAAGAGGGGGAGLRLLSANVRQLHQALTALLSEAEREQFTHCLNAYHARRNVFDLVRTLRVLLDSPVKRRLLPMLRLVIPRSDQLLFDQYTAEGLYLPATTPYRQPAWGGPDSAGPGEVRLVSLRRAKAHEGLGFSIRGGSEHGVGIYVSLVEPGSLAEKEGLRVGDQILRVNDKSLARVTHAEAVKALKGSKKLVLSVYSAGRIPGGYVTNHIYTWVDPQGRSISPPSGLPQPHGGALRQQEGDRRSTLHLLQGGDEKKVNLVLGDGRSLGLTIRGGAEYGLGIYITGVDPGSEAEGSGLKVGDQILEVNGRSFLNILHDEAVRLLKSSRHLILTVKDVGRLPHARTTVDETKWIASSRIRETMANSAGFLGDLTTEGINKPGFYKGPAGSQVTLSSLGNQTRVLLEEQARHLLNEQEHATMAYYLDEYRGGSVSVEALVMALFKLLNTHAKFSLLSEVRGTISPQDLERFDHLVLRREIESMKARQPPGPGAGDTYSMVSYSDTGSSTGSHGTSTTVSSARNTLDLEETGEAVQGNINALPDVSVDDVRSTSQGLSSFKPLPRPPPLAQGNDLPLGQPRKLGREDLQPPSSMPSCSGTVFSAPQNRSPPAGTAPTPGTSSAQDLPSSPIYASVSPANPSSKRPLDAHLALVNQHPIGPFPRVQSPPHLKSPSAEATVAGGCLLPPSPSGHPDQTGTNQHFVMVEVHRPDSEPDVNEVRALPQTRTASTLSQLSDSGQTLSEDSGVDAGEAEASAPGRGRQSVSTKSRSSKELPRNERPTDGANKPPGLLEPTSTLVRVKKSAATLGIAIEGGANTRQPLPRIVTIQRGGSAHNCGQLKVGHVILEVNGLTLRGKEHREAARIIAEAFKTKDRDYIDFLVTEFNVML
Method in brief: as §1

[5] = biological target: T4, PDZ protein (GST-PDZ fusion) (Homo sapiens, UniProt Q13796); assay: as above; conditions: PDZ hAPXL, PDZ Domain 1
T4 construct: made in house; host or cells: E. coli (DH5alpha, BL21 or JM109)
Method in brief: as §1

[6] = PDZ Atrophin-1 Inter. Prot., PDZ Domain 5
[7] = PDZ atrophin-1 interacting Protein (Atrophin-1 Inter. Prot.), PDZ Domain 1
[8] = PDZ FLJ 00011, PDZ Domain 1, read-out: Peptide Optimal Conc (Kd by titration of the PL peptide)

T2 sequence (Q86UL8 whole entry, the tested form may be a part): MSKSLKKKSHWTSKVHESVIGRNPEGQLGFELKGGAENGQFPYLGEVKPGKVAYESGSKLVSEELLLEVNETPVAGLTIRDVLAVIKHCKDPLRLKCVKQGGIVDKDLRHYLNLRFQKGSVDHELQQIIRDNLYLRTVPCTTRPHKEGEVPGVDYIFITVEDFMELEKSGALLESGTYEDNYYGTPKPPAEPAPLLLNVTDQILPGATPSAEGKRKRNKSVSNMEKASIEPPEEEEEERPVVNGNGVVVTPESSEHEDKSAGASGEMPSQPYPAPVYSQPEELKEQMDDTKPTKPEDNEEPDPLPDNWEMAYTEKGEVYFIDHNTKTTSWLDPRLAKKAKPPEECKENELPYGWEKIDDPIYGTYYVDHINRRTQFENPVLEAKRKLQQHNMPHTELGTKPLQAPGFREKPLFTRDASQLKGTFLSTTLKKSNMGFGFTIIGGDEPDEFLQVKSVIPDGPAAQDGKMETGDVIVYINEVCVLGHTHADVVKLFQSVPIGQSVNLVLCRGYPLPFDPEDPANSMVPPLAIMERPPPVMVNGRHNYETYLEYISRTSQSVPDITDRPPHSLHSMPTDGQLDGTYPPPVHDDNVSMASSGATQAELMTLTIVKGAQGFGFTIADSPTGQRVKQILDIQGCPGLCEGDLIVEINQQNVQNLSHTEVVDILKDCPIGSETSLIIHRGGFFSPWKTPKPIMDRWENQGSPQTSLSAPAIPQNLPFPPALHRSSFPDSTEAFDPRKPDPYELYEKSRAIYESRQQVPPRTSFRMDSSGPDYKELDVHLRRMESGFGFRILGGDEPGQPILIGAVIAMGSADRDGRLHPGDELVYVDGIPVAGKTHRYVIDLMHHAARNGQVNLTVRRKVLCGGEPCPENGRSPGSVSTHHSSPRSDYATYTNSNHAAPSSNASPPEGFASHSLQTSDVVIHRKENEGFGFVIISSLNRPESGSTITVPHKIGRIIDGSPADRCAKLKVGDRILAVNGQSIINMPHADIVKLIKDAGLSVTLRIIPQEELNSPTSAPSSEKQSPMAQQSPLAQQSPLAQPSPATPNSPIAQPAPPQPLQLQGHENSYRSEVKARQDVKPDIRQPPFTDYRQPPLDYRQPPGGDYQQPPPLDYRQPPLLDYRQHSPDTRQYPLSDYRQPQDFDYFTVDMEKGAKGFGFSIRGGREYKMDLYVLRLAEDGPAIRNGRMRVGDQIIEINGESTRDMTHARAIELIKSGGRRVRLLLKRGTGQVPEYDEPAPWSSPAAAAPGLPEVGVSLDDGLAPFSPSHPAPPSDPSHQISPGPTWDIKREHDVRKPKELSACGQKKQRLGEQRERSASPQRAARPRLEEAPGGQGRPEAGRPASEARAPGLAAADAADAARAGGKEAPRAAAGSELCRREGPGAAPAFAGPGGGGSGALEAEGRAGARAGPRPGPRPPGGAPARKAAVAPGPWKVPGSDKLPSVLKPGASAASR
T1 sequence (Q14160 whole entry, the tested form may be a part): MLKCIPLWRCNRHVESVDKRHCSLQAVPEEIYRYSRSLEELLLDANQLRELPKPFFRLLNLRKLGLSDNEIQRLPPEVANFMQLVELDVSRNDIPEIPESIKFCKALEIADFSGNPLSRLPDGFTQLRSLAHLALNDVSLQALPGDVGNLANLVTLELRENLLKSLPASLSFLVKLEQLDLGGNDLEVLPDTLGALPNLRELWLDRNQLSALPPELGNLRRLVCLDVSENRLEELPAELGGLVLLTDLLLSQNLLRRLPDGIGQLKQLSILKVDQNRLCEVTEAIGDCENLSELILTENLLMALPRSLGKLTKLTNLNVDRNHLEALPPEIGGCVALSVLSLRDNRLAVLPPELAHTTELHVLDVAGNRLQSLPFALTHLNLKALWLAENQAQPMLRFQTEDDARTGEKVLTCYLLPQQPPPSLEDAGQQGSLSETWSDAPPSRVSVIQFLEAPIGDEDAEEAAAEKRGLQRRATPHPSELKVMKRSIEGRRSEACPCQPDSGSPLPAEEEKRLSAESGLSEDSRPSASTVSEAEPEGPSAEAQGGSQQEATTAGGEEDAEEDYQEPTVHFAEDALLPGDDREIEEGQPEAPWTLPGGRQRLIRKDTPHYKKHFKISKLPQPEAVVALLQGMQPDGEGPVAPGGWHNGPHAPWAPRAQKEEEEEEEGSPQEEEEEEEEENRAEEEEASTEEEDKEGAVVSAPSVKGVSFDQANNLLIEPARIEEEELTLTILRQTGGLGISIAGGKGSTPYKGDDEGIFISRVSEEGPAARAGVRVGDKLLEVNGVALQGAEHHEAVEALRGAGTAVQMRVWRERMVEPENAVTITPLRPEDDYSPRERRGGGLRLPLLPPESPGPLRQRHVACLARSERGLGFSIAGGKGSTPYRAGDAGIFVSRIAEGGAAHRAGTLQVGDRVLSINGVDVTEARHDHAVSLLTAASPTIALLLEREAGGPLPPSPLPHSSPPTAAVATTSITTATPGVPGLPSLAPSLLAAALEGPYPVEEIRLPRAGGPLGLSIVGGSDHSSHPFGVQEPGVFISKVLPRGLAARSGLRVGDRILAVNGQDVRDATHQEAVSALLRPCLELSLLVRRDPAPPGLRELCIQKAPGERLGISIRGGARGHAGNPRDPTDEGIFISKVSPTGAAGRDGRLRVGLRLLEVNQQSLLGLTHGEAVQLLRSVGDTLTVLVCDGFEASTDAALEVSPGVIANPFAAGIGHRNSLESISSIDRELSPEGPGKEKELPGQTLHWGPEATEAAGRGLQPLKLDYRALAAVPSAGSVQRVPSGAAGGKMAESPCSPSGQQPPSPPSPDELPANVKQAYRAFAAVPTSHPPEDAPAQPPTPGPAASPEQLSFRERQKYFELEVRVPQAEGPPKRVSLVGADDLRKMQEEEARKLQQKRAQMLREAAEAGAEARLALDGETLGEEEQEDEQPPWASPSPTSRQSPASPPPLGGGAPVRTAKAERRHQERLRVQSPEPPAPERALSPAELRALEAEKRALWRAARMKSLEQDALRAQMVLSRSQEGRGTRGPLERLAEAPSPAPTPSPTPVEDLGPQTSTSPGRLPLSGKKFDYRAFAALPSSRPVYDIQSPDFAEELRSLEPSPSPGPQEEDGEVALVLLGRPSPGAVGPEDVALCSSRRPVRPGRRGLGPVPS
T4 sequence (Q13796 whole entry, the tested form may be a part): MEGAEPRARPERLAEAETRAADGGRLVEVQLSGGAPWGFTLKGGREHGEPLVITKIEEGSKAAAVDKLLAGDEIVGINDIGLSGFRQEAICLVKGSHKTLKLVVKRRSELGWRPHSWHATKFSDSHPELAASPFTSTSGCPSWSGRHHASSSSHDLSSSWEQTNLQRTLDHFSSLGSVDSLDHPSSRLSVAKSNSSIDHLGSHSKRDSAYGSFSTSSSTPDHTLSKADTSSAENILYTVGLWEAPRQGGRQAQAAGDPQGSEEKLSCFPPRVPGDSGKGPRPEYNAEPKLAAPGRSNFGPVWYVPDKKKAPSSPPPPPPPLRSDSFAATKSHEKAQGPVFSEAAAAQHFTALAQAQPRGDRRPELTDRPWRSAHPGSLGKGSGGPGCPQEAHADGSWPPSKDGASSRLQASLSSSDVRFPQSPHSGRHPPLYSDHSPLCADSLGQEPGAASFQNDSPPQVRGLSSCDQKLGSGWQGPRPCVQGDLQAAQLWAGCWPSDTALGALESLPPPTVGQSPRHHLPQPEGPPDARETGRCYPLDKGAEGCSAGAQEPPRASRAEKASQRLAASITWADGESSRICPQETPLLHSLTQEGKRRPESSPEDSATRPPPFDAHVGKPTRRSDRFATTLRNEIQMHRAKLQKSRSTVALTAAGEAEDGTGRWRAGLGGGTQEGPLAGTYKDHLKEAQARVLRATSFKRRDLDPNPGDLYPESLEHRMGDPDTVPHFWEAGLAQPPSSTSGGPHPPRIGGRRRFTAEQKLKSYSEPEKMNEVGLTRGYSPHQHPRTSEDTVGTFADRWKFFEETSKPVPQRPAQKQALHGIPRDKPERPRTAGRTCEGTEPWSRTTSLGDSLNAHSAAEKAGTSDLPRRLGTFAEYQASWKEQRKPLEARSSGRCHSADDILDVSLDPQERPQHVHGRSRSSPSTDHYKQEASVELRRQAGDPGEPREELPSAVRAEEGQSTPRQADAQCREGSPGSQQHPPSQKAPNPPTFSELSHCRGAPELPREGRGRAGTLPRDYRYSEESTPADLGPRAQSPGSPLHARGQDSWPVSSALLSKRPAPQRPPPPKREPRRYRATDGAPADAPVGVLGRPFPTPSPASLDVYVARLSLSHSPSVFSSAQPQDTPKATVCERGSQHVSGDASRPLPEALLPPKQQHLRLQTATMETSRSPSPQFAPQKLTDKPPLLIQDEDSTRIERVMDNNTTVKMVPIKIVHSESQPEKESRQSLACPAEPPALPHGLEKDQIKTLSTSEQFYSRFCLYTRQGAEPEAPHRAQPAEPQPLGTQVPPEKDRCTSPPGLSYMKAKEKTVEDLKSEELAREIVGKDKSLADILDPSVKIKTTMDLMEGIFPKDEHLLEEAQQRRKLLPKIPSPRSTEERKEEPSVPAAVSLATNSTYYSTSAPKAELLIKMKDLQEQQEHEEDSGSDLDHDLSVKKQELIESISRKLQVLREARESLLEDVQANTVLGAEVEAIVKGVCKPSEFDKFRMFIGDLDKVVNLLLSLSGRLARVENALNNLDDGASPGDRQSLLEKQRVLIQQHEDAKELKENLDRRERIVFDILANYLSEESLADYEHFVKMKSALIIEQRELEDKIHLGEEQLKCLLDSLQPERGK

Row | Compound | Classification ([1]; PDZ KIAA0147, PDZ Domain 1) | Classification ([1]; PDZ KIAA0147, PDZ Domain 3) | Classification [2, 6] | Classification [2, 7] | Classification [4] | Kd [3, 8] [nM] | Classification [5] | also measured
1 | CC[C@H](C)[C@H](NC(=O)[C@H](CO)NC(=O)[C@@H](NC(=O)[C@H](Cc1ccccc1)NC(=O)[C@H](CO)NC(=O)CCCC[C@@H]1SC[C@@H]2NC(=O)N[C@@H]21)[C@@H](C)O)C(=O)N[C@@H](CC(C)C)C(=O)N[C@H](C(=O)N[C@@H](CS)C(=O)N[C@@H](Cc1c[nH]cn1)C(=O)N[C@@H](CCC(N)=O)C(=O)N[C@@H](CCCNC(=N)N)C(=O)N[C@@H](CCCNC(=N)N)C(=O)N[C@H](C(=O)N[C@@H](CCC(N)=O)C(=O)N[C@@H](CCCNC(=N)N)C(=O)N[C@@H](CCCCN)C(=O)N[C@@H](CCC(=O)O)C(=O)N[C@H](C(=O)N[C@H](C(=O)N[C@@H](C)C(=O)O)C(C)C)[C@@H](C)O)[C@@H](C)O)[C@@H](C)O [GluR5-2 (rat)] | 2 (A450 nm 1-2) |  |  |  |  |  |  | Classification ([2]; PDZ atrophin-1 interacting Protein, PDZ Domain 1): 1 (A450 nm 0-1); Kd ([3]; PDZ BAI-1, PDZ Domain 2, titration of the PL peptide, read-out: Peptide Optimal Conc (Kd, dissociation constant)): 300 nM
2 | CSCC[C@H](NC(=O)[C@H](C)NC(=O)[C@H](CCCNC(=N)N)NC(=O)CNC(=O)[C@@H](NC(=O)[C@H](Cc1c[nH]c2ccccc12)NC(=O)[C@H](CCCNC(=N)N)NC(=O)CNC(=O)CCCC[C@@H]1SC[C@@H]2NC(=O)N[C@@H]21)[C@@H](C)O)C(=O)N[C@@H](CO)C(=O)N[C@@H](C)C(=O)N[C@@H](Cc1c[nH]c2ccccc12)C(=O)N[C@@H](CCCCN)C(=O)N1CCC[C@H]1C(=O)N[C@H](C(=O)N[C@@H](CCCNC(=N)N)C(=O)N[C@@H](CCCNC(=N)N)C(=O)N[C@@H](CCC(=O)O)C(=O)N[C@H](C(=O)N[C@@H](CCC(=O)O)C(=O)N[C@H](C(=O)O)C(C)C)[C@@H](C)O)[C@@H](C)O [HPV E6 #35 (modified)] (Biotin-GRWTGRAMSAWKPTRRETEV-OH; C-terminus assumed) | 5 (A450 nm of 4 more than 2× repeated) | 4 (A450 nm 3-4) | 4 (A450 nm 3-4) | 5 (A450 nm of 4 more than 2× repeated) | 3 (A450 nm 2-3) | 350 |  | Classification ([1]; PDZ KIAA0147, PDZ Domain 2): 5 (A450 nm of 4 more than 2× repeated); Classification ([1]; PDZ KIAA0147, PDZ Domain 4): 1 (A450 nm 0-1); Classification ([2]; PDZ atrophin-1 interacting Protein, PDZ Domain 2): 1 (A450 nm 0-1); Classification ([2]; PDZ atrophin-1 interacting Protein, PDZ Domain 3): 4 (A450 nm 3-4)
3 | CC(C)C[C@H](NC(=O)[C@H](C)NC(=O)[C@H](CO)NC(=O)CNC(=O)[C@@H](NC(=O)CCCC[C@@H]1SC[C@@H]2NC(=O)N[C@@H]21)[C@@H](C)O)C(=O)N[C@@H](CCC(N)=O)C(=O)N[C@@H](C)C(=O)N[C@@H](Cc1c[nH]c2ccccc12)C(=O)N[C@@H](CCCNC(=N)N)C(=O)N[C@@H](Cc1c[nH]cn1)C(=O)N[C@H](C(=O)N[C@@H](CO)C(=O)N[C@@H](CCCNC(=N)N)C(=O)N[C@@H](CCC(N)=O)C(=O)N[C@@H](C)C(=O)N[C@H](C(=O)N[C@@H](CCC(=O)O)C(=O)N[C@@H](CO)C(=O)N[C@H](C(=O)N[C@H](C(=O)O)C(C)C)[C@@H](C)O)[C@@H](C)O)[C@@H](C)O [HPV E6 #66 (modified)] (Biotin-TGSALQAWRHTSRQATESTV-OH; C-terminus assumed) | 2 (A450 nm 1-2) |  | 1 (A450 nm 0-1) | 5 (A450 nm of 4 more than 2× repeated) | 1 (A450 nm 0-1) |  | 1 (A450 nm 0-1) | Kd ([3]; PDZ BAI-1, PDZ Domain 2, read-out: Peptide Optimal Conc (Kd by titration of the PL peptide)): 3000 nM
4 | CC(C)C[C@H](NC(=O)[C@H](C)NC(=O)[C@@H](NC(=O)[C@@H](NC(=O)[C@H](Cc1c[nH]cn1)NC(=O)[C@H](CC(C)C)NC(=O)CNC(=O)[C@H](CCC(N)=O)NC(=O)CNC(=O)CNC(=O)[C@H](C)NC(=O)[C@H](C)NC(=O)[C@H](CCCNC(=N)N)NC(=O)[C@H](C)NC(=O)[C@H](CO)NC(=O)[C@H](CC(=O)O)NC(=O)[C@H](CC(=O)O)NC(=O)[C@H](Cc1c[nH]c2ccccc12)NC(=O)[C@H](C)NC(=O)CCCC[C@@H]1SC[C@@H]2NC(=O)N[C@@H]21)C(C)C)[C@@H](C)O)C(=O)O [LPAP] (Biotin-AWDDSARAAGGQGLHVTAL-OH; C-terminus assumed) | 3 (A450 nm 2-3) |  | 2 (A450 nm 1-2) |  | 1 (A450 nm 0-1) | 1500 | 1 (A450 nm 0-1) | 
5 | CC(C)C[C@H](NC(=O)[C@H](CC(=O)O)NC(=O)[C@H](CO)NC(=O)[C@H](CCC(=O)O)NC(=O)CNC(=O)[C@H](Cc1ccc(O)cc1)NC(=O)[C@H](CC(C)C)NC(=O)[C@H](C)NC(=O)[C@H](CO)NC(=O)[C@H](CO)NC(=O)[C@H](Cc1ccccc1)NC(=O)[C@H](C)NC(=O)[C@H](C)NC(=O)[C@H](Cc1ccc(O)cc1)NC(=O)[C@H](CC(=O)O)NC(=O)[C@H](CC(C)C)NC(=O)[C@H](C)NC(=O)CNC(=O)[C@@H]1CCCN1C(=O)[C@@H](NC(=O)CCCC[C@@H]1SC[C@@H]2NC(=O)N[C@@H]21)C(C)C)C(=O)O [a-actinin 2] (Biotin-VPGALDYAAFSSALYGESDL-OH; C-terminus assumed) | 2 (A450 nm 1-2) | 3 (A450 nm 2-3) | 5 (A450 nm of 4 more than 2× repeated) |  | 1 (A450 nm 0-1) |  | 5 (A450 nm of 4 more than 2× repeated) | Kd ([3]; PDZ TAX IP2, PDZ Domain 1, titration of the PL peptide, read-out: Peptide Optimal Conc (Kd, dissociation constant)): 2500 nM
6 | CC[C@H](C)[C@H](NC(=O)[C@H](Cc1ccc(O)cc1)NC(=O)[C@H](CC(C)C)NC(=O)[C@H](CCC(N)=O)NC(=O)[C@H](Cc1c[nH]cn1)NC(=O)[C@H](CO)NC(=O)[C@H](C)NC(=O)[C@H](CC(C)C)NC(=O)[C@@H](NC(=O)[C@H](CC(=O)O)NC(=O)[C@H](CCSC)NC(=O)[C@H](Cc1ccccc1)NC(=O)[C@@H]1CCCN1C(=O)[C@H](CCCNC(=N)N)NC(=O)[C@@H](NC(=O)[C@H](CC(C)C)NC(=O)[C@H](CC(N)=O)NC(=O)[C@H](CC(=O)O)NC(=O)[C@@H](NC(=O)[C@H](CO)NC(=O)CCCC[C@@H]1SC[C@@H]2NC(=O)N[C@@H]21)[C@@H](C)O)C(C)C)[C@@H](C)O)C(=O)O [presenilin-2] (Biotin-STDNLVRPFMDTLASHQLYI-OH; C-terminus assumed) |  |  | 1 (A450 nm 0-1) |  |  |  |  | Kd ([3]; PDZ HEMBA 1003117, PDZ Domain 1, titration of the PL peptide, read-out: Peptide Optimal Conc (Kd, dissociation constant)): 4000 nM

From US20050282743A1, “Molecular interactions in cells” (Arbor Vita Corporation, priority 2001, published 2005)
